Legend:
DNA = test: Tm change due to pyrene conjugation, against DNA; format: binding; settings: 100 mM Na+, 10 nM phosphate, 0.1 mM EDTA, pH 7, 4 μM strand concentration
Procedure: (§1) Changes in Tm due to pyrene conjugation were evaluated against both DNA and RNA. Tm was measured in 100 mM Na^+, 10 nM phosphate, 0.1 mM EDTA, pH 7 at 4 μM strand concentration.

RNA = test: Tm change due to pyrene conjugation, against RNA; format: binding; settings: 100 mM Na+, 10 nM phosphate, 0.1 mM EDTA, pH 7, 4 μM strand concentration
Procedure: as §1

5′-GCG-TGU*-CTG-CG (5'-GCG-TGU*-CTG-CG; 2'-O-aminohexyl uridine linker, as printed in the source, key not given here) [Oligomer 52, U* from 2′-O-[hexyl-(Ω-N-phthalimido)amino]uridine amidite; amino linker]
Tm v. DNA (DNA): 50.9 °C | Tm v. RNA (RNA): 55.5 °C

Reference: patent US20040142899A1, “Compositions and methods for enhanced biostability and altered biodistribution of oligonucleotides in mammals” (ISIS Pharmaceuticals, Inc., priority 1990, published 2004)
